From patent publication US11351184B2, “Preparation of Pulsatilla saponin B4 for injection” (priority 2017, dated 2022)

Key:
[1] = system: Cisplatin-induced Acute Kidney Injury In Mice; test: Effect of B4 by different administration routes on cisplatin-induced acute kidney injury in mice; type: in vivo, ICR mouse; conditions: for BUN / Crea / TP / Urine protein: 4 days; for Reduction of effective dose to reverse cisplatin-induced renal injury, injection compared with oral administration: iv 5 mg/kg versus gavage 100 mg/kg
Protocol: Pulsatilla saponin B4 was orally and intravenously administrated in parallel, the effect of Pulsatilla saponin B4 in different administration routes on acute nephritis in cisplatin (CDDP)-stimulated mouse serum was investigated.
The drugs were all prepared into a solution with a specified concentration under “Test Method” with double distilled water and administered in the prescribed manner.
2.2 Modeling method: models were made at a dose of […] of cisplatin, the mice in normal group were injected with physiological saline intraperitoneally and the mice in other groups were injected with cisplatin intraperitoneally.
2.3 Grouping and administration: Animals were randomly divided into seven groups, 10-12 animals in each group:
(3) Dexamethasone positive group (0.5 mg/kg·body weight), dexamethasone solution was administered by gavage at a dose of 20 ml/kg·body weight;
(4) B4 high-dose group administered intravenously (5 mg/kg·body weight), B4 solution was injected into the tail vein at a dose of 5 ml/kg·body weight;
(5) B4 low-dose group administered intravenously (2.5 mg/kg·body weight), B4 solution was injected into the tail vein at a dose of 5 ml/kg·body weight;
(6) B4 high-dose group administered by gavage (100 mg/kg·body weight), B4 solution was given by gavage at a dose of 20 ml/kg·body weight;
(7) B4 low-dose group administered by gavage (50 mg/kg·body weight), B4 solution was given by gavage at a dose of 20 m/kg·body weight;
Drugs were administered continuously for 4 days from the day of modeling.
Urine was collected 0.5 hours after the last administration and urine protein was measured; blood was collected from the eyeball 1 hour after the administration, and the whole blood of the mice was placed at room temperature for 2 hours, centrifuged at 3500 rpm/min for 15 minutes, 200 μl supernatant was measured by an automatic biochemical analyzer to determine the total protein (TP), urea nitrogen (BUN) and creatinine (Cre).

[2] = Compatibility test of raw materials and excipients (high temperature and illumination); type: physicochemical
Protocol: The content of Pulsatilla saponin B4 in the following experimental examples and examples is determined according to the following method:
Chromatographic column: C18, 250 mm×4.6 mm, 5 μm
Mobile phase: acetonitrile-water (26:74) (volume ratio)
An appropriate amount of Pulsatilla saponin B4 control sample was taken, weighed precisely, placed into a 10 ml volumetric flask, added with methanol to dissolve and dilute to the mark, the solution was shaken well and filtered to obtain a solution with 1 mg Pulsatilla saponin B4 control sample/1 ml solution.
About 25 mg of test sample was taken, weighed precisely, placed into a 25 ml volumetric flask, added with the mobile phase to dissolve and dilute to the mark, the solution was shaken well and filtered through a 0.22 μm microporous membrane, the filtrate was taken to obtain the test sample.
10 μl of the test solution was taken and injected into a liquid chromatograph, the chromatogram was recorded. The calculation formula was as follows: […]
Pulsatilla saponin B4 raw material was mixed with various excipients (water for injection, physiological saline, mannitol, lactose, sucrose and glucose) in a ratio of 1:5 (mass), and then placed under the conditions of high temperature (60° C. and 40° C.) and illumination (4500Lux±500), the samples were taken on day 0, 7 and 14 to investigate the purity of Pulsatilla saponin B4 and related substances.

[3] = Water solubility of Pulsatilla saponin B4; type: physicochemical
[4] = dexamethasone 0.5 mg/kg by gavage, serum 1 h after last administration
[5] = B4 iv (tail vein) 2.5 mg/kg, serum
[6] = B4 po (gavage) 100 mg/kg, serum
[7] = day 0, raw material:excipient 1:5 (mass)
[8] = day 7, illumination (4500Lux±500)
[9] = day 14, illumination (4500Lux±500)

C[C@@H]1C[C@H]2[C@@H]3CCC4=CC(=O)C=C[C@]4(C)[C@@]3(F)[C@@H](O)C[C@]2(C)[C@@]1(O)C(=O)CO [Positive control, Dexamethasone, reference compound]
BUN [1, 4]: 42.97 ± 27.45 mg/dL | Crea [1, 4]: 30.10 ± 3.93 µmol/L | TP [1, 4]: 52.90 ± 2.50 g/L | BUN ([1]; dexamethasone 0.5 mg/kg by gavage, serum 1 h after last administration, listed as positive control): decreased significantly | Urine protein ([1]; dexamethasone 0.5 mg/kg by gavage, urine 0.5 h after last administration): 1.00 ± 0.27 mg/mL | Urine protein ([1]; dexamethasone 0.5 mg/kg by gavage, urine 0.5 h after last administration, listed as positive control): decreased significantly

C=C(C)C1CC[C@]2(C(=O)O[C@@H]3O[C@H](CO[C@@H]4O[C@H](CO)[C@@H](O[C@@H]5O[C@@H](C)[C@H](O)[C@@H](O)[C@H]5O)[C@H](O)[C@H]4O)[C@@H](O)[C@H](O)[C@H]3O)CC[C@]3(C)[C@H](CC[C@@H]4[C@@]5(C)CC[C@H](OC6OC[C@H](O)[C@H](O)[C@H]6O[C@]6(O)O[C@@H](C)[C@H](O)[C@@H](O)[C@H]6O)[C@@](C)(CO)[C@@H]5CC[C@]43C)[C@@H]12 (stereo partly drawn) [Prescription B4, Pulsatilla saponin B4]
BUN [1, 5]: 69.26 ± 45.76 mg/dL | Crea [1, 5]: 29.27 ± 5.66 µmol/L | TP [1, 5]: 47.58 ± 2.50 g/L | Urine protein ([1]; B4 iv (tail vein) 2.5 mg/kg, urine): 1.35 ± 0.39 mg/mL | TP ([1]; B4 iv (tail vein) 5 mg/kg, serum): 46.58 ± 2.25 g/L | BUN ([1]; B4 po (gavage) 50 mg/kg, serum): 50.1 ± 5.38 mg/dL | Crea ([1]; B4 po (gavage) 50 mg/kg, serum): 30.28 ± 4.77 µmol/L | TP ([1]; B4 po (gavage) 50 mg/kg, serum): 47.69 ± 3.17 g/L | Urine protein ([1]; B4 po (gavage) 50 mg/kg, urine): 1.37 ± 0.31 mg/mL | Crea [1, 6]: 28.17 ± 3.01 µmol/L | TP [1, 6]: 48.15 ± 3.68 g/L | Urine protein ([1]; B4 po (gavage) 100 mg/kg, urine): 1.19 ± 0.25 mg/mL | Reduction of effective dose to reverse cisplatin-induced renal injury, injection compared with oral administration [1]: at least 20 times | Reduction of effective dose to reverse cisplatin-induced renal injury, injection compared with oral administration ([1]; listed as Pulsatilla saponin B4): 20 times | Purity (%) [2, 7]: 99.10% | Related substances (%) Max single impurity [2, 7]: 0.40% | Related substances (%) Total impurities [2, 7]: 0.65% | Content (%) 40° C. ([2]; day 7, 40° C.): 98.96% | Related substances (%) 40° C. Max single impurity ([2]; day 7, 40° C.): 0.40% | Related substances (%) 40° C. Total impurities ([2]; day 7, 40° C.): 0.64% | Content (%) 60° C. ([2]; day 7, 60° C.): 98.93% | Related substances (%) 60° C. Max single impurity ([2]; day 7, 60° C.): 0.41% | Related substances (%) 60° C. Total impurities ([2]; day 7, 60° C.): 0.66% | Content (%) illumination [2, 8]: 98.97% | Related substances (%) illumination Max single impurity [2, 8]: 0.40% | Related substances (%) illumination Total impurities [2, 8]: 0.64% | Content (%) 40° C. ([2]; day 14, 40° C.): 98.86% | Related substances (%) 40° C. Max single impurity ([2]; day 14, 40° C.): 0.41% | Related substances (%) 40° C. Total impurities ([2]; day 14, 40° C.): 0.63% | Content (%) 60° C. ([2]; day 14, 60° C.): 98.89% | Related substances (%) 60° C. Max single impurity ([2]; day 14, 60° C.): 0.41% | Related substances (%) 60° C. Total impurities ([2]; day 14, 60° C.): 0.64% | Content (%) illumination [2, 9]: 98.95% | Related substances (%) illumination Max single impurity [2, 9]: 0.42% | Related substances (%) illumination Total impurities [2, 9]: 0.64% | water solubility [3]: good water solubility
